{"source": "PubChem BioAssay (NCI)", "test_in_all_cases": "DTP human tumour cell line panel, 384-well format", "key": {"[1]": {"system": "HS 578T breast"}, "[2]": {"system": "T-47D breast"}, "[3]": {"system": "K-562 leukemia"}, "[4]": {"system": "OVCAR-4 ovarian"}, "[5]": {"system": "SK-OV-3 ovarian"}, "[6]": {"system": "RXF 393 renal"}, "[7]": {"system": "CAKI-1 renal"}, "[8]": {"system": "SW-620 colon"}, "[9]": {"system": "786-0 renal"}, "[10]": {"system": "UACC-62 melanoma"}, "[11]": {"system": "NCI-H23 lung"}, "[12]": {"system": "HCT-15 colon"}, "[13]": {"system": "MDA-MB-468 breast"}, "[14]": {"system": "UO-31 renal"}, "[15]": {"system": "SK-MEL-28 melanoma"}, "[16]": {"system": "UACC-257 melanoma"}, "[17]": {"system": "DU-145 prostate"}, "[18]": {"system": "PC-3 prostate"}, "[19]": {"system": "SNB-19 CNS"}, "[20]": {"system": "HOP-62 NSCLC"}, "[21]": {"system": "OVCAR-8 ovarian"}, "[22]": {"system": "MOLT-4 leukemia"}, "[23]": {"system": "MCF7 breast"}, "[24]": {"system": "HT29 colon"}, "[25]": {"system": "SF-268 CNS"}, "[26]": {"system": "MDA-MB-231 breast"}, "[27]": {"system": "ACHN renal"}, "[28]": {"system": "MALME-3M melanoma"}, "[29]": {"system": "COLO 205 colon"}, "[30]": {"system": "SF-539 CNS"}, "[31]": {"system": "TK-10 renal"}, "[32]": {"system": "U251 glioblastoma"}, "[33]": {"system": "HCT-116 colon"}, "[34]": {"system": "KM12 colon"}, "[35]": {"system": "IGROV1 ovarian"}, "[36]": {"system": "NCI-H322M lung"}, "[37]": {"system": "OVCAR-5 ovarian"}, "[38]": {"system": "BT-549 breast"}, "[39]": {"system": "SNB-75 CNS"}, "[40]": {"system": "NCI-H226 lung"}, "[41]": {"system": "SR leukemia"}, "[42]": {"system": "HL-60(TB) leukemia"}, "[43]": {"system": "NCI-H460 NSCLC"}, "[44]": {"system": "SK-MEL-5 melanoma"}, "[45]": {"system": "OVCAR-3 ovarian"}, "[46]": {"system": "SF-295 CNS"}, "[47]": {"system": "A498 renal"}, "[48]": {"system": "SN12C renal"}, "[49]": {"system": "MDA-MB-435 melanoma"}, "[50]": {"system": "A549 NSCLC"}, "[51]": {"system": "M14 melanoma"}, "[52]": {"system": "HOP-92 NSCLC"}, "[53]": {"system": "SK-MEL-2 melanoma"}, "[54]": {"system": "NCI-H522 lung"}, "[55]": {"system": "EKVX NSCLC"}}, "note": "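At the GI50, growth is halved. TGI marks complete inhibition of growth.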"}
{"compound": "Cn1cc(-c2ccc3c(c2)ncn3-c2cc(NS(=O)(=O)C3CC3)cc(-c3ccc(F)cc3F)c2)cn1", "values": [{"measurement": "GI50", "setting": "[1]", "value": 0.575, "unit": "µM"}, {"measurement": "TGI", "setting": "[1]", "value": 2.44, "unit": "µM"}, {"measurement": "GI50", "setting": "[2]", "value": 2.63, "unit": "µM"}, {"measurement": "TGI", "setting": "[2]", "value": 13.7, "unit": "µM"}, {"measurement": "GI50", "setting": "[3]", "value": 1.81, "unit": "µM"}, {"measurement": "TGI", "setting": "[3]", "value": 3.65, "unit": "µM"}, {"measurement": "GI50", "setting": "[4]", "value": 2.26, "unit": "µM"}, {"measurement": "TGI", "setting": "[4]", "value": 37.6, "unit": "µM"}, {"measurement": "GI50", "setting": "[5]", "value": 2.42, "unit": "µM"}, {"measurement": "TGI", "setting": "[5]", "value": 10.8, "unit": "µM"}, {"measurement": "GI50", "setting": "[6]", "value": 0.183, "unit": "µM"}, {"measurement": "TGI", "setting": "[6]", "value": 2.06, "unit": "µM"}, {"measurement": "GI50", "setting": "[7]", "value": 2.16, "unit": "µM"}, {"measurement": "TGI", "setting": "[7]", "value": "> 100", "unit": "µM"}, {"measurement": "GI50", "setting": "[8]", "value": 18, "unit": "µM"}, {"measurement": "TGI", "setting": "[8]", "value": "> 100", "unit": "µM"}, {"measurement": "GI50", "setting": "[9]", "value": 1.99, "unit": "µM"}, {"measurement": "TGI", "setting": "[9]", "value": 4.95, "unit": "µM"}, {"measurement": "GI50", "setting": "[10]", "value": 6.3, "unit": "µM"}, {"measurement": "TGI", "setting": "[10]", "value": 18.9, "unit": "µM"}, {"measurement": "GI50", "setting": "[11]", "value": 2.51, "unit": "µM"}, {"measurement": "TGI", "setting": "[11]", "value": 14.4, "unit": "µM"}, {"measurement": "GI50", "setting": "[12]", "value": 4.25, "unit": "µM"}, {"measurement": "TGI", "setting": "[12]", "value": 24, "unit": "µM"}, {"measurement": "GI50", "setting": "[13]", "value": 1.71, "unit": "µM"}, {"measurement": "TGI", "setting": "[13]", "value": 6.44, "unit": "µM"}, {"measurement": "GI50", "setting": "[14]", "value": 1.73, "unit": "µM"}, {"measurement": "TGI", "setting": "[14]", "value": 7.66, "unit": "µM"}, {"measurement": "GI50", "setting": "[15]", "value": 4.04, "unit": "µM"}, {"measurement": "TGI", "setting": "[15]", "value": 19.5, "unit": "µM"}, {"measurement": "GI50", "setting": "[16]", "value": 3.02, "unit": "µM"}, {"measurement": "TGI", "setting": "[16]", "value": 10.3, "unit": "µM"}, {"measurement": "GI50", "setting": "[17]", "value": 4.9, "unit": "µM"}, {"measurement": "TGI", "setting": "[17]", "value": 40.2, "unit": "µM"}, {"measurement": "GI50", "setting": "[18]", "value": 2.92, "unit": "µM"}, {"measurement": "TGI", "setting": "[18]", "value": 9.54, "unit": "µM"}, {"measurement": "GI50", "setting": "[19]", "value": 4.05, "unit": "µM"}, {"measurement": "TGI", "setting": "[19]", "value": "> 100", "unit": "µM"}, {"measurement": "GI50", "setting": "[20]", "value": 2.39, "unit": "µM"}, {"measurement": "TGI", "setting": "[20]", "value": 10.8, "unit": "µM"}, {"measurement": "GI50", "setting": "[21]", "value": 4.79, "unit": "µM"}, {"measurement": "TGI", "setting": "[21]", "value": 79.6, "unit": "µM"}, {"measurement": "GI50", "setting": "[22]", "value": 1.62, "unit": "µM"}, {"measurement": "TGI", "setting": "[22]", "value": 3.09, "unit": "µM"}, {"measurement": "GI50", "setting": "[23]", "value": 2.07, "unit": "µM"}, {"measurement": "TGI", "setting": "[23]", "value": 12.8, "unit": "µM"}, {"measurement": "GI50", "setting": "[24]", "value": 3.01, "unit": "µM"}, {"measurement": "TGI", "setting": "[24]", "value": 10.2, "unit": "µM"}, {"measurement": "GI50", "setting": "[25]", "value": 3.4, "unit": "µM"}, {"measurement": "TGI", "setting": "[25]", "value": 61.3, "unit": "µM"}, {"measurement": "GI50", "setting": "[26]", "value": 3.4, "unit": "µM"}, {"measurement": "TGI", "setting": "[26]", "value": "> 100", "unit": "µM"}, {"measurement": "GI50", "setting": "[27]", "value": 2.5, "unit": "µM"}, {"measurement": "TGI", "setting": "[27]", "value": 13.2, "unit": "µM"}, {"measurement": "GI50", "setting": "[28]", "value": 4.55, "unit": "µM"}, {"measurement": "TGI", "setting": "[28]", "value": 15.2, "unit": "µM"}, {"measurement": "GI50", "setting": "[29]", "value": 11.7, "unit": "µM"}, {"measurement": "TGI", "setting": "[29]", "value": 93.6, "unit": "µM"}, {"measurement": "GI50", "setting": "[30]", "value": 0.305, "unit": "µM"}, {"measurement": "TGI", "setting": "[30]", "value": 2.05, "unit": "µM"}, {"measurement": "GI50", "setting": "[31]", "value": 2.87, "unit": "µM"}, {"measurement": "TGI", "setting": "[31]", "value": 24.4, "unit": "µM"}, {"measurement": "GI50", "setting": "[32]", "value": 2.15, "unit": "µM"}, {"measurement": "TGI", "setting": "[32]", "value": 12.3, "unit": "µM"}, {"measurement": "GI50", "setting": "[33]", "value": 2.79, "unit": "µM"}, {"measurement": "TGI", "setting": "[33]", "value": 12.3, "unit": "µM"}, {"measurement": "GI50", "setting": "[34]", "value": 3.4, "unit": "µM"}, {"measurement": "TGI", "setting": "[34]", "value": 13.2, "unit": "µM"}, {"measurement": "GI50", "setting": "[35]", "value": 2.02, "unit": "µM"}, {"measurement": "TGI", "setting": "[35]", "value": 6.92, "unit": "µM"}, {"measurement": "GI50", "setting": "[36]", "value": 3.3, "unit": "µM"}, {"measurement": "TGI", "setting": "[36]", "value": 20.7, "unit": "µM"}, {"measurement": "GI50", "setting": "[37]", "value": 4.31, "unit": "µM"}, {"measurement": "TGI", "setting": "[37]", "value": 79.4, "unit": "µM"}, {"measurement": "GI50", "setting": "[38]", "value": 1.03, "unit": "µM"}, {"measurement": "TGI", "setting": "[38]", "value": 9.21, "unit": "µM"}, {"measurement": "GI50", "setting": "[39]", "value": 0.29, "unit": "µM"}, {"measurement": "TGI", "setting": "[39]", "value": 3.53, "unit": "µM"}, {"measurement": "GI50", "setting": "[40]", "value": 0.344, "unit": "µM"}, {"measurement": "TGI", "setting": "[40]", "value": 14.3, "unit": "µM"}, {"measurement": "GI50", "setting": "[41]", "value": 1.89, "unit": "µM"}, {"measurement": "TGI", "setting": "[41]", "value": 3.7, "unit": "µM"}, {"measurement": "GI50", "setting": "[42]", "value": 3.2, "unit": "µM"}, {"measurement": "TGI", "setting": "[42]", "value": 6.8, "unit": "µM"}, {"measurement": "GI50", "setting": "[43]", "value": 2.48, "unit": "µM"}, {"measurement": "TGI", "setting": "[43]", "value": 13.7, "unit": "µM"}, {"measurement": "GI50", "setting": "[44]", "value": 3.28, "unit": "µM"}, {"measurement": "TGI", "setting": "[44]", "value": 15.7, "unit": "µM"}, {"measurement": "GI50", "setting": "[45]", "value": 3.15, "unit": "µM"}, {"measurement": "TGI", "setting": "[45]", "value": 11.4, "unit": "µM"}, {"measurement": "GI50", "setting": "[46]", "value": 1.69, "unit": "µM"}, {"measurement": "TGI", "setting": "[46]", "value": 4.14, "unit": "µM"}, {"measurement": "GI50", "setting": "[47]", "value": 2.36, "unit": "µM"}, {"measurement": "TGI", "setting": "[47]", "value": 6.03, "unit": "µM"}, {"measurement": "GI50", "setting": "[48]", "value": 2.51, "unit": "µM"}, {"measurement": "TGI", "setting": "[48]", "value": "> 100", "unit": "µM"}, {"measurement": "GI50", "setting": "[49]", "value": 4.37, "unit": "µM"}, {"measurement": "TGI", "setting": "[49]", "value": 72.8, "unit": "µM"}, {"measurement": "GI50", "setting": "[50]", "value": 3.42, "unit": "µM"}, {"measurement": "TGI", "setting": "[50]", "value": "> 100", "unit": "µM"}, {"measurement": "GI50", "setting": "[51]", "value": 4.6, "unit": "µM"}, {"measurement": "TGI", "setting": "[51]", "value": 47.3, "unit": "µM"}, {"measurement": "GI50", "setting": "[52]", "value": 2.03, "unit": "µM"}, {"measurement": "TGI", "setting": "[52]", "value": 12.4, "unit": "µM"}, {"measurement": "GI50", "setting": "[53]", "value": 2.78, "unit": "µM"}, {"measurement": "TGI", "setting": "[53]", "value": 7.22, "unit": "µM"}, {"measurement": "GI50", "setting": "[54]", "value": 1.8, "unit": "µM"}, {"measurement": "TGI", "setting": "[54]", "value": 6.87, "unit": "µM"}, {"measurement": "GI50", "setting": "[55]", "value": 2.82, "unit": "µM"}, {"measurement": "TGI", "setting": "[55]", "value": 13.5, "unit": "µM"}]}
